From patent US6296785A, “Indeno-fused photochromic naphthopyrans” (PPG Industries Ohio, Inc., priority 2000, dated 2001)

Experiments:
Type in all cases: physicochemical
[1] = lambda max (Vis) of activated photochromic test squares in a Varian Cary 3 uv-visible spectrophotometer; settings: activated form in test square
Protocol: (§1) Testing was done with the photochromic compounds described in Examples 1 through 20 and Comparative Examples 1 through 3 in the following manner. A quantity of photochromic compound calculated to yield a 1.5×10^-3 molal solution was added to a flask containing 50 grams of a monomer blend of 4 parts ethoxylated bisphenol A dimethacrylate (BPA 2EO DMA), 1 part poly(ethylene glycol) 600 dimethacrylate, and 0.033 weight percent 2,2'-azobis(2-methyl propionitrile) (AIBN). The photochromic compound was dissolved into the monomer blend by stirring and gentle heating, if necessary. After a clear solution was obtained, it was poured into a flat sheet mold having the interior dimensions of 2.2 mm×6 inches (15.24 cm)×6 inches (15.24 cm). The mold was sealed and placed in a horizontal air flow, programmable oven programmed to increase the temperature from 40° C. to 95° C. over a 5 hour interval, hold the temperature at 95° C. for 3 hours, lower it to 60° C. over a 2 hour interval and then hold it at 60° C. for 16 hours. After the mold was opened, the polymer sheet was cut using a diamond blade saw into 2 inch (5.1 centimeters) test squares.
The lambda max (Vis) is the wavelength in the visible spectrum at which the maximum absorption of the activated (colored) form of the photochromic compound in a test square occurs. The lambda max (Vis) wavelengths reported in Table 1 were determined by testing the photochromic test square polymerizates of Part A in a Varian Cary 3 uv-visible spectrophotometer. The bleach rate (T 1/2) is the time interval in seconds for the absorbance of the activated form of the photochromic compound in the test squares to read one half the highest absorbance at room temperature (72° F., 22.2° C.) after removal of the source of activating light.
For each lambda max visible, the corresponding optical density (Δ OD/Min and Δ OD at saturation) for the desired compounds of the Examples and Comparative Examples are tabulated in Table 1 for the two bands (A and B) of peak absorption for each compound. Table 1 also includes the bleach rate (T 1/2) for each of the compounds as measured at band B. The ratings of the Relative Δ OD at Saturation Test for the bands A and B of each of the Examples and Comparative Examples are calculated as follows: Δ OD at saturation (Band A)/Δ OD at saturation (Band B)×100.

[2] = photochromic response of test squares on an optical bench (sensitivity, saturation optical density, bleach rate); settings: for ΔOD @ Saturation (Band A) / ΔOD @ Saturation (Band B): UV exposure 15 minutes; for ΔOD @ Saturation (Band A) / Sensitivity ΔOD/MIN (Band A) / ΔOD @ Saturation (Band B) / Sensitivity ΔOD/MIN (Band B): 72° F. (22.2° C.), polymer test square; for Sensitivity ΔOD/MIN (Band A) / Sensitivity ΔOD/MIN (Band B): first five (5) seconds of UV exposure, expressed per minute; for Bleach Rate T 1/2: measured at band B, room temperature (72° F., 22.2° C.) after removal of activating light
Protocol: as §1
(§2) The photochromic test squares of Part A were tested for photochromic response rates on an optical bench. Prior to testing on the optical bench, the photochromic test squares were exposed to 365 nanometer ultraviolet light for about 15 minutes to activate the photochromic compounds and then placed into a 76° C. oven for about 15 minutes to bleach the photochromic compounds. The test squares were then cooled to room temperature, exposed to fluorescent room lighting for at least 2 hours and then kept covered for at least 2 hours prior to testing on an optical bench maintained at 72° F. (22.2° C.). The bench was fitted with a 250 watt Xenon arc lamp, a remote controlled shutter, a copper sulfate bath acting as a heat sink for the arc lamp, a Schott WG-320 nm cut-off filter which removes short wavelength radiation; neutral density filter(s) and a sample holder in which the square to be tested was inserted. The power output of the optical bench, i.e., the dosage of light that the sample lens would be exposed to, was calibrated with a photochromic test square used as a reference standard. […] The UV-A detector was placed into the sample holder and the light output was measured. Adjustments to the power output were made by increasing or decreasing the lamp wattage or by adding or removing neutral density filters in the light path.
A monitoring, collimated beam of light from a tungsten lamp was passed through the square at a small angle (approximately 30°) normal to the square. After passing through the square, the light from the tungsten lamp was directed to a detector through Spectral Energy Corp. GM-200 monochromator set at the previously determined visible lambda max of the photochromic compound being measured. The output signals from the detector were processed by a radiometer.
(§3) Change in optical density (ΔOD) was determined by inserting a test square in the bleached state into the sample holder, adjusting the transmittance scale to 100%, opening the shutter from the Xenon lamp to provide ultraviolet radiation to change the test square from the bleached state to an activated (i.e., darkened) state, measuring the transmittance in the activated state, and calculating the change in optical density according to the formula: ΔOD=log(100/% Ta), where % Ta is the percent transmittance in the activated state and the logarithm is to the base 10.
The ΔOD/Min, which represents the sensitivity of the photochromic compound's response to UV light, was measured over the first five (5) seconds of UV exposure, then expressed on a per minute basis. The saturation optical density (ΔOD@ Saturation) was taken under identical conditions as the ΔOD/Min, except UV exposure was continued for 15 minutes. […]

[3] = Relative ΔOD at Saturation Test; settings: ΔOD at saturation (Band A)/ΔOD at saturation (Band B)×100
Excerpt: In accordance with the present invention, it has now been discovered that certain novel indeno[2,1-f]naphtho[1,2-b]pyrans having two absorption bands in the activated (colored) state, an acceptable fade rate, high activated intensity, a high coloration rate and a rating of 80 or higher in the Relative ΔOD at Saturation Test may be prepared. The Relative ΔOD at Saturation Test is described in Example 21. The ratings of the test are defined herein as the result obtained when the optical density of band "A" is divided by the optical density of band "B" and multiplied by 100. It is believed that compounds having a rating of 80 or higher are most valuable for formulating neutral grays, greens and browns for commercial photochromic ophthalmic eyeware.
as §1, §2
as §3, with “10. […]” for “10.”

λ MAX Vis (Band A) [1] | λ MAX Vis (Band B) [1] | ΔOD @ Saturation (Band A) [2] | Sensitivity ΔOD/MIN (Band A) [2] | ΔOD @ Saturation (Band B) [2] | Sensitivity ΔOD/MIN (Band B) [2] | Bleach Rate T 1/2 [2] | Relative ΔOD at Saturation (rating) [3] | SMILES
437 nm | 562 nm | 0.16 | 0.21 ΔOD/MIN | 0.27 | 0.29 ΔOD/MIN | 0.783 min | 59 | CCC1(O)c2ccccc2-c2c1c1c(c3ccccc23)OC(c2ccc(OC)cc2)(c2ccc(OC)cc2)C=C1 (centres unmarked) [Comp. Ex. 1, 3,3-di(4-methoxyphenyl)-13-hydroxy-13-ethyl-3H-13H-indeno[2,1-f]naphtho[1,2-b]pyran, reference compound]
499 nm | 607 nm | 0.36 | 0.22 ΔOD/MIN | 0.51 | 0.32 ΔOD/MIN | 2.17 min | 70 | CCC1(O)c2cc(OC)ccc2-c2c1c1c(c3cc(OC)ccc23)OC(c2ccc(OC)cc2)(c2ccc(OC)cc2)C=C1 (centres unmarked) [Comp. Ex. 2, 3,3-di(4-methoxyphenyl)-6,11-dimethoxy-13-hydroxy-13-ethyl-3H-13H-indeno[2,1-f]naphtho[1,2-b]pyran, reference compound]
445 nm | 600 nm | 0.34 | 0.32 ΔOD/MIN | 0.48 | 0.48 ΔOD/MIN | 1.27 min | 71 | CCC1(O)c2cc(OC)c(OC)cc2-c2c1c1c(c3ccccc23)OC(c2ccc(OC)cc2)(c2ccc(OC)cc2)C=C1 (centres unmarked) [Comp. Ex. 3, 3,3-di(4-methoxyphenyl)-10,11-dimethoxy-13-hydroxy-13-ethyl-3H-13H-indeno[2,1-f]naphtho[1,2-b]pyran, reference compound]
445 nm | 611 nm | 0.99 | 0.33 ΔOD/MIN | 0.79 | 0.24 ΔOD/MIN | 8.77 min | 125 | COc1ccc(C2(c3ccc(OC)cc3)C=Cc3c4c(c5cc(OC)c(OC)cc5c3O2)-c2cc(OC)c(OC)cc2C4(C)C)cc1 [Example 1, 3,3-di(4-methoxyphenyl)-6,7,10,11-tetramethoxy-13,13-dimethyl-3H,13H-indeno[2,1-f]naphtho[1,2-b]pyran]
485 nm | 618 nm | 1.10 | 0.32 ΔOD/MIN | 1.07 | 0.29 ΔOD/MIN | 14.2 min | 103 | COc1cc2c(cc1OC)C(C)(C)c1c3c(c4cc(OC)c(OC)cc4c1-2)OC(c1ccccc1)(c1ccc(N2CCOCC2)cc1)C=C3 (centres unmarked) [Example 2, 3-phenyl-3-(4-morpholinophenyl)-6,7,10,11-tetramethoxy-13,13-dimethyl-3H,13H-indeno[2,1-f]naphtho[1,2-b]pyran]
460 nm | 623 nm | 0.62 | 0.34 ΔOD/MIN | 0.41 | 0.24 ΔOD/MIN | 2.58 min | 151 | CCC1(O)c2cc(OC)c(OC)cc2-c2c1c1c(c3cc(OC)c(OC)cc23)OC(c2ccc(OC)cc2)(c2ccc(OC)cc2)C=C1 (centres unmarked) [Example 3, 3,3-di(4-methoxyphenyl)-6,7,10,11-tetramethoxy-13-hydroxy-13-ethyl-3H,13H-indeno[2,1-f]naphtho[1,2-b]pyran]
455 nm | 576 nm | 1.11 | 0.39 ΔOD/MIN | 0.71 | 0.22 ΔOD/MIN | 4.45 min | 156 | COc1ccc(C2(c3ccc(OC)cc3)C=Cc3c4c(c5cc(OC)c(OC)cc5c3O2)-c2ccccc2C4(C)C)cc1 [Example 4, 3,3-di(4-methoxyphenyl)-6,7-dimethoxy-13,13-dimethyl-3H-13H-indeno[2,1-f]naphtho[1,2-b]pyran]
458 nm | 584 nm | 0.42 | 0.26 ΔOD/MIN | 0.27 | 0.19 ΔOD/MIN | 1.45 min | 155 | CCC1(O)c2ccccc2-c2c1c1c(c3cc(OC)c(OC)cc23)OC(c2ccc(OC)cc2)(c2ccc(OC)cc2)C=C1 (centres unmarked) [Example 5, 3,3-di(4-methoxyphenyl)-6,7-dimethoxy-13-hydroxy-13-ethyl-3H-13H-indeno[2,1-f]naphtho[1,2-b]pyran]
440 nm | 608 nm | 1.02 | 0.46 ΔOD/MIN | 0.73 | 0.37 ΔOD/MIN | 5.17 min | 140 | CCC1(CC)c2cc(OC)c(OC)cc2-c2c1c1c(c3cc(OC)c(OC)cc23)OC(c2ccc(OC)cc2)(c2ccc(OC)cc2)C=C1 [Example 6, 3,3-di(4-methoxyphenyl)-6,7,10,11-tetramethoxy-13,13-diethyl-3H,13H-indeno[2,1-f]naphtho[1,2-b]pyran]
460 nm | 577 nm | 0.66 | 0.17 ΔOD/MIN | 0.43 | 0.16 ΔOD/MIN | 3.43 min | 153 | COc1ccc(C2(c3ccc(OC)cc3)C=Cc3c4c(c5cc(OC)c(OC)cc5c3O2)-c2ccccc2C4c2ccccc2)cc1 (centres unmarked) [Example 7, 3,3-di(4-methoxyphenyl)-6,7-dimethoxy-13-phenyl-3H,13H-indeno[2,1-f]naphtho[1,2-b]pyran]
